Reference: ChEMBL document CHEMBL1137380, “Conformationally restricted dipeptide amides as potent and selective neuronal nitric oxide synthase inhibitors” (J Med Chem, 2006)

Columns and labels:
[1] = biological target: T1, Nitric oxide synthase 3 (Bos taurus, UniProt P29473); test: Inhibition of bovine eNOS
T1 sequence (P29473 whole entry): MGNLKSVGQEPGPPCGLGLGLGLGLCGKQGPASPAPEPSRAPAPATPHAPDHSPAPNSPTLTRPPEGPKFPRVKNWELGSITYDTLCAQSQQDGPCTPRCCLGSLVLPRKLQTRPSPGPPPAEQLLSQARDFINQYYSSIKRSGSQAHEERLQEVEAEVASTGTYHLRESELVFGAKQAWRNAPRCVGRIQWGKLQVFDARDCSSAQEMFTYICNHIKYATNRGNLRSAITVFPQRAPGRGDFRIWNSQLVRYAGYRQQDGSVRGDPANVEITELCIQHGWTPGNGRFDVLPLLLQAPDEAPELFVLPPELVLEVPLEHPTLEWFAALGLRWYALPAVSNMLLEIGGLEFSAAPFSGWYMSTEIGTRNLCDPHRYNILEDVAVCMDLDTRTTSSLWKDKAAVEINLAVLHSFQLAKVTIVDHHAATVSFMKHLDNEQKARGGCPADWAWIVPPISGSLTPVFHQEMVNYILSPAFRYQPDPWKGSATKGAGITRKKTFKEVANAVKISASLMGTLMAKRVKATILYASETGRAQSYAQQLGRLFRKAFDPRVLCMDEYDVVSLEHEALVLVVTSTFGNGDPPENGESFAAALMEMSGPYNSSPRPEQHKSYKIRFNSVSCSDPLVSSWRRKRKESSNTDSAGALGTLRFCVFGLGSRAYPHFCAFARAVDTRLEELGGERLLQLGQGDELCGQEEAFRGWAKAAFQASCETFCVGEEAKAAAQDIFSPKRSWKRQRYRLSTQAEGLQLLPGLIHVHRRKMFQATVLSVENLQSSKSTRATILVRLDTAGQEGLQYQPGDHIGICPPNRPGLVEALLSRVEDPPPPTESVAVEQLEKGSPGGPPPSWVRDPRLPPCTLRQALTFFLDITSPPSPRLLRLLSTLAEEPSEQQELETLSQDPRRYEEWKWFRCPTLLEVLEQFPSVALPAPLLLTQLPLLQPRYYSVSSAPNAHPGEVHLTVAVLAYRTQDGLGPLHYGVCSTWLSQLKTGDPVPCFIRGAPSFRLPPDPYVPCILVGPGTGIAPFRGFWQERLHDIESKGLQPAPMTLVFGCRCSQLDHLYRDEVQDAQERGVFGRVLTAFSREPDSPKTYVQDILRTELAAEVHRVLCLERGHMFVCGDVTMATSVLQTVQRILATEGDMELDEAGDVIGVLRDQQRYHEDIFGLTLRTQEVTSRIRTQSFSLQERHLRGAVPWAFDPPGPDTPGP

[2] = biological target: T2, Nitric oxide synthase, inducible (Mus musculus, UniProt P29477); test: Inhibition of murine macrophage iNOS
T2 sequence (P29477 whole entry): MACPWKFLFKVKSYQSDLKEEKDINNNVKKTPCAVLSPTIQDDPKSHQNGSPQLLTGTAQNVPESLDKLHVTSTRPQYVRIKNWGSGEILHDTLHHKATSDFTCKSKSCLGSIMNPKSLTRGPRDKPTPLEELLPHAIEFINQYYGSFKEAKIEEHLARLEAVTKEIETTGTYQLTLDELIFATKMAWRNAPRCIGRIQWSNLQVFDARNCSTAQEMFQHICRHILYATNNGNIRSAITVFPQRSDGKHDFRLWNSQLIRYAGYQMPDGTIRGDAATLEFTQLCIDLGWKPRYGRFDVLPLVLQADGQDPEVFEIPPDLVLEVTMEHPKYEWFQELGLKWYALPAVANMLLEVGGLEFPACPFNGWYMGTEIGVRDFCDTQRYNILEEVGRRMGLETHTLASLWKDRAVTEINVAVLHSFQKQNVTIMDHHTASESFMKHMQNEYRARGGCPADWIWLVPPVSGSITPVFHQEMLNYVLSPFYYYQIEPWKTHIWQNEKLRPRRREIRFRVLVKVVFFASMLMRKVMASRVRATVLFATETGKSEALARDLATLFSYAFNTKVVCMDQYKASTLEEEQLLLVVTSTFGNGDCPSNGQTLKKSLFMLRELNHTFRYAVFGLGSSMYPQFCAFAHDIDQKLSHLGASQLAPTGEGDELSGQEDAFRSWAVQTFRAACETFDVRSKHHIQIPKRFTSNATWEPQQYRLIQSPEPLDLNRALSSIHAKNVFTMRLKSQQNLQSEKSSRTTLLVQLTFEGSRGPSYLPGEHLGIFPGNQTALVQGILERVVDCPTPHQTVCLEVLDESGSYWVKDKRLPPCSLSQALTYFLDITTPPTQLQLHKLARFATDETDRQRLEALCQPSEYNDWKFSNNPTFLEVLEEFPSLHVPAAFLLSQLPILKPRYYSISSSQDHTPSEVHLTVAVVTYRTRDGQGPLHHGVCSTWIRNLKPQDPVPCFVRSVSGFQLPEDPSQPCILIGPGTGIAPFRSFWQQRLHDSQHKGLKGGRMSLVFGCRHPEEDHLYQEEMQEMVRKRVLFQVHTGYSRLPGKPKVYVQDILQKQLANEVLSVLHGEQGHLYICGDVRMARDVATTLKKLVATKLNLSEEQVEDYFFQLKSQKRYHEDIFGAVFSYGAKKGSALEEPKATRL

[3] = biological target: Nitric oxide synthase 1 (Rattus norvegicus, UniProt P29476); test: Inhibition of rat nNOS
[4] = Selectivity for rat nNOS over murine iNOS
[5] = Selectivity for rat nNOS over bovine eNOS

Nitric oxide synthase 1, sequence (P29476 whole entry): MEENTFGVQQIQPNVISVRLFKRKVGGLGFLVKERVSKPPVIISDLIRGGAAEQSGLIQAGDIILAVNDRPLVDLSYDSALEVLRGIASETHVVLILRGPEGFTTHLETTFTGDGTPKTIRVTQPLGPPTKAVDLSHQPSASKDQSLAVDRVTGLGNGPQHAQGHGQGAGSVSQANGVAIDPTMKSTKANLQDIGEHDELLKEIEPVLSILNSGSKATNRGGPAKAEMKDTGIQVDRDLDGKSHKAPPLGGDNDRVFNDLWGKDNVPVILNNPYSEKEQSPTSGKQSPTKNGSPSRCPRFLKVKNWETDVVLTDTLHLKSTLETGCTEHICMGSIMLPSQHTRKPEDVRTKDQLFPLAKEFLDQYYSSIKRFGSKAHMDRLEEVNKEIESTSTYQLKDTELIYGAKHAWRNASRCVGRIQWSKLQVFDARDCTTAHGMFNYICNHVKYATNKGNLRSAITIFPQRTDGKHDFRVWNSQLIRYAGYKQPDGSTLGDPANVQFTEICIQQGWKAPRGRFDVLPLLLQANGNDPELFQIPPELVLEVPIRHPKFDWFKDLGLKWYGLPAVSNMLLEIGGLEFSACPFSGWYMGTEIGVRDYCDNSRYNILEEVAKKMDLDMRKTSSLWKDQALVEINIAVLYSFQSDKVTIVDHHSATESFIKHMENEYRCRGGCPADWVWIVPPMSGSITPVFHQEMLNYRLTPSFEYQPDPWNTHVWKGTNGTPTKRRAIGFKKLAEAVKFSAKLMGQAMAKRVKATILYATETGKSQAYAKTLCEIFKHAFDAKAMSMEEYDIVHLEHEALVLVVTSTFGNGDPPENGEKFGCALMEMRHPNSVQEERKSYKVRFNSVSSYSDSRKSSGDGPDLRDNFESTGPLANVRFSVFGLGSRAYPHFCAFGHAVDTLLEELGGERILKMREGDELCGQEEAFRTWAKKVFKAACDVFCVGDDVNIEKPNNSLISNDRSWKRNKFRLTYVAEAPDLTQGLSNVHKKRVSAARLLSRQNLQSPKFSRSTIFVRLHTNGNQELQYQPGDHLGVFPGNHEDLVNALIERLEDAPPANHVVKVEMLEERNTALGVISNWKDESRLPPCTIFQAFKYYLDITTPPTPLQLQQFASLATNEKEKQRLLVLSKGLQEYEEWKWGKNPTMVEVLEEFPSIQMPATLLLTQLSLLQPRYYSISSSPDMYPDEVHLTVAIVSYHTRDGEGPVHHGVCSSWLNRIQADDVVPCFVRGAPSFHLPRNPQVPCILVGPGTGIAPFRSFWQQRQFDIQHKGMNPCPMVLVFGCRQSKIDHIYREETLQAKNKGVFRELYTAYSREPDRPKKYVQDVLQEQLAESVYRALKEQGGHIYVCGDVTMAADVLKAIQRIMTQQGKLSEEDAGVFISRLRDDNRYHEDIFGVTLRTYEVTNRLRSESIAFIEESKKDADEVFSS

| SMILES | IC50 [1] [µM] | Ki [1] [µM] | IC50 [2] [µM] | Ki [2] [µM] | IC50 [3] [µM] | Ki [3] [µM] | Ratio Ki [4] | Ratio Ki [5] |
| --- | --- | --- | --- | --- | --- | --- | --- | --- |
| NC(=O)[C@H]1NCC[C@@H]1NC(=O)[C@@H](N)CCC/N=C(\N)N[N+](=O)[O-] | 1380 | 200 | 12.7 | 5.76 |  |  |  |  |
| CN1C[C@H](NC(=O)[C@@H](N)CCC/N=C(\N)N[N+](=O)[O-])C[C@H]1C(N)=O | 1690 | 246 | 83.5 | 37.9 | 73.5 | 8.46 | 4.5 | 29 |
| NC(=O)[C@@H]1C[C@@H](NC(=O)[C@@H](N)CCC/N=C(\N)N[N+](=O)[O-])CN1Cc1ccccc1 | 1100 | 159 | 87.5 | 39.7 | 2.85 | 0.328 | 121 | 485 |
